Some results are limits rather than exact numbers.

FKBP12, sequence (P62942 whole entry, species assumed): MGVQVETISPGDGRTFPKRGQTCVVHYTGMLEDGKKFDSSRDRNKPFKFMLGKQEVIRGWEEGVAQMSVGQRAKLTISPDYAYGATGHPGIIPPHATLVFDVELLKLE

The target of this test is FKBP12 (Homo sapiens, UniProt P62942). The test is described as follows: rotamase inhibition assay (N-succinyl-Ala-Ala-Pro-Phe-p-nitroanilide, chymotrypsin-coupled). Type of test: biochemical. The settings on record: apparent Ki; NI = no inhibition at the concentrations tested; read-out: Rotamase Ki(app). On the procedure:
In the rotamase inhibition assay, isomerization of an artificial substrate N-succinyl-Ala-Ala-Pro-Phe-p-nitroanilide is followed spectrophotometrically. The assay includes the cis form of the substrate, FKBP12, the compound being tested, and chymotrypsin. Chymotrypsin is able to cleave p-nitroaniline from the trans form of the substrate, but not from the cis form. Release of p-nitroaniline is measured spectrophotometrically. Using this assay, various amounts of the FKBP rotamase-inhibiting compounds of formula (I-a) or (I-b) were added to cis-N-succinyl-alanine-alanine-proline-phenylalanine-para-nitroaniline (Bachem, 3132 Kashiwa Street, Torrance, Calif. 90505) in the presence of FKBP12 and chymotrypsin. Spectrophotometric measurements of p-nitroaniline concentrations allowed estimation of the apparent Ki values, which are provided in Table 1 below.
On to `COc1cccc2c1CCN1C(=O)C3CCCC(C21)N3C(=O)C(=O)c1cc(OC)c(OC)c(OC)c1` (stereo not drawn) [Compound 12], for which the Ki stood at 27 nM.
As for `C=CCC(CC=C)C(=O)OC[C@@H]1CC[C@H](N2CC3CCCC(C2=O)N3C(=O)C(=O)c2cc(OC)c(OC)c(OC)c2)C1` (stereo partly drawn) [Compound 154], the Ki came to 244 nM.
With `C=CCC(CC=C)C(=O)OC[C@@H](CN1CC2CCCC(C1=O)N2C(=O)C(=O)C(C)(C)CC)OCc1ccccc1` (stereo partly drawn) [Compound 75], the Ki was 790 nM.
As for `COC(COC1(C(=O)C(=O)N2C3CCCC2C(=O)N(CCCCc2ccccc2)C3)CCCC1)OC` (stereo not drawn) [Compound 103], the Ki was 1200 nM.
On to `COc1cc(C(=O)C(=O)N2C3CCCC2C(=O)N(C[C@H](CO)OCc2ccccc2)C3)cc(OC)c1OC` (stereo partly drawn) [Compound 45], for which the Ki turned out to be 580 nM.
The same measure for `COCOCC1(C(=O)C(=O)N2C3CCCC2C(=O)N(CCCCc2ccccc2)C3)CCCC1` (stereo not drawn) [Compound 85]: 324 nM.
The same measure for `COCC(=O)OC1(C(=O)C(=O)N2C3CCCC2C(=O)N(CCCCc2ccccc2)C3)CCCC1` (stereo not drawn) [Compound 101]: 1400 nM; for `CC(=O)OCC1(C(=O)C(=O)N2C3CCCC2C(=O)N(CCCCc2ccccc2)C3)CCCCC1` (stereo not drawn) [Compound 86]: 1300 nM; for `CCC(C)(C)C(=O)C(=O)N1C2CCCC1C(=O)N([C@H]1CCC[C@@H]1OCc1ccccc1)C2` (stereo partly drawn) [Compound 78]: 4100 nM.
Turning to `COc1cc(C(=O)C(=O)N2C3CCCC2C2=CN(C4CCCC4)C(=O)CN2C3=O)cc(OC)c1OC` (stereo not drawn) [Compound 117], the Ki was 84 nM.
The same measure for `COc1cc(C(=O)C(=O)N2C3CCCC2C(=O)N(C2CCCCC2)C3)cc(OC)c1OC` (stereo not drawn) [Compound 44]: 3000 nM.
Consider `COC(CN1C[C@@H]2[C@H]3CCC[C@@H](C(=O)N2CC1=O)N3C(=O)C(=O)C1(OC)CCCC1)OC` [Compound 115], for which the Ki is greater than 20000 nM.
As to `COc1cc(C(=O)C(=O)N2C3CCCC2C(=O)N(C[C@@H](CO)OCc2ccccc2)C3)cc(OC)c1OC` (stereo partly drawn) [Compound 50], the Ki came to 560 nM.
The figure for `CC(C)C(=O)OC1(C(=O)C(=O)N2C3CCCC2C2=CN(C4CCCC4)C(=O)CN2C3=O)CCCC1` (stereo not drawn) [Compound 150] is 1500 nM.
The same measure for `COc1cc(C(=O)C(=O)N2C3CCCC2C(=O)N(C(CO)COCc2ccccc2)C3)cc(OC)c1OC` (stereo not drawn) [Compound 51]: 4000 nM.
With `CCC(C)(C)C(=O)C(=O)N1C2CCCC1C(=O)N(CCCCc1ccccc1)C2=O` [Compound 36], the Ki is 445 nM.
The same measure for `C=CCC(CC=C)C(=O)OC[C@@H](CN1CC2CCCC(C1=O)N2C(=O)C(=O)C1(COC(C)=O)CCCC1)OCc1ccccc1` (stereo partly drawn) [Compound 109]: 49 nM.
The same measure for `C=CCC(CC=C)C(=O)OC[C@@H](CN1CC2CCCC(C1=O)N2C(=O)C(=O)C1(COC(=O)COC)CCCC1)OCc1ccccc1` (stereo partly drawn) [Compound 108]: 61 nM; for `COc1cc(C(=O)C(=O)N2C3CCCC2C(OC)N(CCCCc2ccccc2)C3=O)cc(OC)c1OC` (stereo not drawn) [Compound 37]: 222 nM.
Take `COc1cc(C(=O)C(=O)N2C3CCCC2C(=O)N(C2CCCC2)C3=O)cc(OC)c1OC` [Compound 41]: the Ki amounted to 5800 nM.
Consider `COc1cc(C(=O)C(=O)N2C3CCCC2C(=O)N([C@H]2CCC[C@@H]2OCc2ccccc2)C3)cc(OC)c1OC` (stereo partly drawn) [Compound 71], for which the Ki was 4700 nM.
The same measure for `COCOC1(C(=O)C(=O)N2[C@@H]3CCC[C@H]2C(=O)N2CC(=O)N(CC(OC)OC)C[C@H]32)CCCC1` [Compound 119]: greater than 40000 nM.
The figure for `CCC(C)(C)C(=O)C(=O)N1C2CCCC1[C@@H]1OCCN1C2=O` (stereo partly drawn) [Compound 97] is 9000 nM.
On to `O=C1C2CCCC(CN1CCCCc1ccccc1)N2C(=O)C(=O)C1(O)CCCC1` (stereo not drawn) [Compound 95], for which the Ki turned out to be 1200 nM.
Consider `COc1cc(C(=O)C(=O)N2C3CCCC2C2=CN(CC4CC4)C(=O)CN2C3=O)cc(OC)c1OC` (stereo not drawn) [Compound 122], for which the Ki was determined as 150 nM.
In the case of `CCC(C)(C)C(=O)C(=O)N1C2CCCC1C(=O)N(C[C@H](CO)OCc1ccccc1)C2` (stereo partly drawn) [Compound 58], the Ki was determined as 3000 nM.
The same measure for `COc1cc(C(=O)C(=O)N2C3CCCC2C(=O)N(Cc2ccccc2)C3=O)cc(OC)c1OC` [Compound 34]: 206 nM; for `C=CCC(CC=C)C(=O)OC[C@H](CN1CC2CCCC(C1=O)N2C(=O)C(=O)C(C)(C)CC)OCc1ccccc1` (stereo partly drawn) [Compound 70]: 890 nM; for `COc1cc(C(=O)C(=O)N2C3CCCC2C(=O)N(C(COCc2ccccc2)COC(C)=O)C3)cc(OC)c1OC` (stereo not drawn) [Compound 53]: 5000 nM.
Take `COC[C@@H]1CC[C@@H](C)[C@](O)(C(=O)C(=O)N2C3CCCC2C(=O)N(CCCCc2ccccc2)C3)C1` (stereo partly drawn) [Compound 120]: the Ki worked out at 2500 nM.
The same measure for `CCC(CC)C(=O)C(=O)N1C2CCCC1C(=O)N(CCCCc1ccccc1)C2` (stereo not drawn) [Compound 68]: 2500 nM.
Turning to `COc1cc(OC)cc(N2C=C3C4CCCC(C(=O)N3CC2=O)N4C(=O)C(=O)C(C)(C)c2ccccc2)c1` (stereo not drawn) [Compound 155], the Ki came out at 1200 nM.
For `CCCC(CCC)C(=O)OC[C@@H](CN1CC2CCCC(C1=O)N2C(=O)C(=O)c1cc(OC)c(OC)c(OC)c1)OCc1ccccc1` (stereo partly drawn) [Compound 46], the Ki stood at 448 nM.
Consider `COc1cc(C(=O)C(=O)N2C3CCCC2C(=O)N(CCOCc2ccccc2)C3)cc(OC)c1OC` (stereo not drawn) [Compound 7], for which the Ki is 160 nM.
Turning to `CC(=O)OCC1(C(=O)C(=O)N2C3CCCC2C2=CN(C4CCCC4)C(=O)CN2C3=O)CCCC1` (stereo not drawn) [Compound 121], the Ki was found to be 780 nM.
Consider `COC1(C(=O)C(=O)N2C3CCCC2C2=CN(C4CCCC4)C(=O)CN2C3=O)CCCC1` (stereo not drawn) [Compound 116], for which the Ki stood at 960 nM.
Turning to `C=CCC(CC=C)C(=O)OC[C@H](CN1CC2CCCC(C1=O)N2C(=O)C(=O)C1(COC(=O)COC)CCCC1)OCc1ccccc1` (stereo partly drawn) [Compound 110], the Ki is 86 nM.
The figure for `COCOC1(C(=O)C(=O)N2C3CCCC2C(=O)N(CCCCc2ccccc2)C3)CCCC1` (stereo not drawn) [Compound 112] is 1000 nM.
As for `COc1cc(C(=O)C(=O)N2C3CCCC2C(=O)N(CCCCc2ccccc2)C3=O)cc(OC)c1OC` [Compound 35], the Ki came to 73 nM.
As for `COc1cc(C(=O)C(=O)N2C3CCCC2C(=O)N(CCCCCc2ccccc2)C3=O)cc(OC)c1OC` [Compound 38], the Ki amounted to 298 nM.
Take `COCC(=O)OC1(C(=O)C(=O)N2C3CCCC2C2=CN(C4CCCC4)C(=O)CN2C3=O)CCCC1` (stereo not drawn) [Compound 145]: the Ki was 1700 nM.
Consider `COc1ccc(CN2C(=O)C3CCCC(C2C#N)N3C(=O)C(=O)c2cc(OC)c(OC)c(OC)c2)cc1` (stereo not drawn) [Compound 80], for which the Ki was 1800 nM.
With `CCC(C)(C)C(=O)C(=O)N1C2CCCC1C1=CN(C3CCCC3)C(=O)CN1C2=O` (stereo not drawn) [Compound 118], the Ki is 1000 nM.
For the compound `COC[C@@H]1CC[C@@H](C)[C@](O)(C(=O)C(=O)N2C3CCCC2C2=CN(C4CCCC4)C(=O)CN2C3=O)C1` (stereo partly drawn) [Compound 140], the Ki was found to be 10000 nM.
Turning to `CCC(CC)(COC(C)=O)C(=O)C(=O)N1C2CCCC1C(=O)N(CCCCc1ccccc1)C2` (stereo not drawn) [Compound 61], the Ki was determined as 790 nM.
On to `COCCOC1(C(=O)C(=O)N2C3CCCC2C(=O)N(CCCCc2ccccc2)C3)CCCC1` (stereo not drawn) [Compound 98], for which the Ki amounted to 772 nM.
For the compound `COc1cc(C(=O)C(=O)N2C3CCCC2C(=O)N(Cc2ccc4ccccc4c2)C3)cc(OC)c1OC` (stereo not drawn) [Compound 139], the Ki stood at 355 nM.
With `CO[C@@H](C)[C@@H]1CC[C@@H](C)[C@](O)(C(=O)C(=O)N2C3CCCC2C(=O)N(CCCCc2ccccc2)C3)C1` (stereo partly drawn) [Compound 99], the Ki was determined as 3700 nM.
The figure for `CCC(CC)(COCOC)C(=O)C(=O)N1C2CCCC1C(=O)N(CCCCc1ccccc1)C2` (stereo not drawn) [Compound 83] is 860 nM.
`COCOCC1(C(=O)C(=O)N2C3CCCC2C2=CN(C4CCCC4)C(=O)CN2C3=O)CCCC1` (stereo not drawn) [Compound 152]: the Ki was found to be 2800 nM.
As for `CCC(CC)(COC(=O)COC)C(=O)C(=O)N1C2CCCC1C(=O)N(CCCCc1ccccc1)C2` (stereo not drawn) [Compound 81], the Ki was 1100 nM.
The same measure for `COC1(C(=O)C(=O)N2[C@@H]3CCC[C@H]2C(=O)N2Cc4c(cc(C(F)(F)F)cc4C(F)(F)F)C[C@@H]32)CCCC1` [Compound 137]: 9700 nM.
The figure for `CC(=O)OCC(C)(C)C(=O)C(=O)N1C2CCCC1C(=O)N(CCCCc1ccccc1)C2` (stereo not drawn) [Compound 60] is 3000 nM; for `O=C1C2CCCC(CN1CCOCc1ccccc1)N2C(=O)C(=O)C12CC3CC(CC(C3)C1)C2` (stereo not drawn) [Compound 40] it is 690 nM.
Take `COc1cc(C(=O)C(=O)N2C3CCCC2C2OCCN2C3=O)cc(OC)c1OC` (stereo not drawn) [Compound 96]: the Ki turned out to be 1400 nM.
On to `COCOC1(C(=O)C(=O)N2C3CCC[C@@H]2[C@@H]2Cc4c(cc(OC)cc4OC)CN2C3=O)CCCC1` [Compound 136], for which the Ki was found to be 2400 nM.
For the compound `COc1cc(C(=O)C(=O)N2C3CCCC2C2OCC(COCc4ccccc4)N2C3=O)cc(OC)c1OC` (stereo not drawn) [Compound 42], the Ki is 2200 nM.
Take `COCOC1(C(=O)C(=O)N2C3CCCC2C2=CN(C4CCCC4)C(=O)CN2C3=O)CCCC1` (stereo not drawn) [Compound 135]: the Ki was determined as 1400 nM.
The same measure for `CCC(C)(C)C(=O)C(=O)N1C2CCCC1C1c3cccc(OC)c3CCN1C2=O` (stereo not drawn) [Compound 87]: 5000 nM.
Consider `COCOC1(C(=O)C(=O)N2C3CCC[C@@H]2[C@@H]2Cc4cc(OC(F)(F)F)ccc4CN2C3=O)CCCC1` [Compound 141], for which the Ki worked out at 4000 nM.
On to `COc1ccc2c(c1)C1C3CCCC(C(=O)N1CC2)N3C(=O)C(=O)C1(COC(C)=O)CCCC1` (stereo not drawn) [Compound 82], for which the Ki worked out at 3000 nM.
The same measure for `COc1ccc2c(c1)C(OC)C1C3CCCC(C(=O)N1C2)N3C(=O)C(=O)c1cc(OC)c(OC)c(OC)c1` (stereo not drawn) [Compound 74]: 111 nM.
For the compound `CCC(C)(C)C(=O)C(=O)N1C2CCCC1C(=O)N([C@H]1CCC[C@@H]1OCc1ccccc1)C2` (stereo partly drawn) [Compound 77], the Ki amounted to 20500 nM.
